Literature values, collected in patent US20040248850A1, “Compounds for the treatment of HIV infection” (Kemia, Inc., priority 2003, published 2004).

Test system: Human Immunodeficiency Virus Type 1
Details: in cell culture

For enfuvirtide, the EC50 is listed as 1 ng/mL.
